Assay results from patent US20240180909A1, “Dosing Regimens for Elagolix” (AbbVie Inc., priority 2018, published 2024).

Test system: premenopausal women with heavy menstrual bleeding associated with uterine fibroids
Assay: Twelve month study with 300 mg BID (initial studies and extension study), heavy menstrual bleeding responder rate
Type: in vivo, human
Protocol: This study was a randomized, double-blind, multicenter, extension study designed to evaluate the efficacy and safety of elagolix alone and in combination with an exemplary low-dose hormone (add-back) therapy (estradiol (“E2”) 1.0 mg/norethindrone acetate (“NETA”) 0.5 mg) in premenopausal women with heavy menstrual bleeding associated with uterine fibroids for up to 12 months total (an initial 6 months on active treatment in one of two replicate initial (i.e., pivotal) studies and an additional 6 months in this extension study.
Subjects who received elagolix 300 mg twice daily or elagolix 300 mg twice daily in combination with E2/NETA in the initial studies continued to receive the same treatment (n=94 and 206, respectively) while subjects who received placebo in the initial studies were randomized in an equal ratio to one of the two treatment groups (elagolix 300 mg BID (n=56) or elagolix 300 mg BID+E2/NETA (n=54)).
The primary efficacy endpoint was the percentage of subjects meeting the responder criteria: a) menstrual blood loss (MBL) volume<80 mL during the final, AND b) 50% or greater reduction in MBL volume from baseline to the final month. […]

With `COc1cccc(-c2c(C)n(Cc3c(F)cccc3C(F)(F)F)c(=O)n(C[C@H](NCCCC(=O)O)c3ccccc3)c2=O)c1F` [Elagolix, 4-((R)-2-[5-(2-fluoro-3-methoxy-phenyl)-3-(2-fluoro-6-trifluoromethyl-benzyl)-4-methyl-2,6-dioxo-3,6-dihydro-2H-pyrimidin-1-yl]-1-phenyl-ethylamino)-butyric acid] the “Hypoestrogenic effects, such as hot flush and reduction in bone mineral density” value (initial and extension studies, elagolix 300 mg BID) was “observed” and the safety signals (up to twelve months of treatment) was “no new safety signals”.
